Reference: patent US20220186188A1, “Method for Obtaining Pancreatic Progenitor Cells and Pancreatic Islet Beta Cells By Means of Differentiation of Human Pluripotent Stem Cells” (Asia Regenerative Medicine, Ltd., priority 2019, published 2022)

Legend:
[1] = test system: pancreatic progenitor cells and pancreatic islet β cells differentiated from human induced pluripotent stem cells; assay: Real-time fluorescence quantitative PCR of PDX1, NKX6-1 and INS mRNA (human induced pluripotent stem cells); assay type: cell-based; details: qPCR
Description: a pancreatic progenitor cell medium was prepared, the medium in step 1) was replaced with the pancreatic progenitor cell medium, and the cells were cultured in a carbon dioxide incubator at 37 degrees Celsius for 5 days, during which the medium was replaced every day, wherein the composition of the pancreatic progenitor cell medium was: with an MCDB131 medium as a basic medium, and the following components at the working concentrations were further included: 0.5% of bovine serum albumin (BSA), 1.5 g/L of sodium bicarbonate, 1×glutamine (GlutaMAX), 10 mM glucose, […] vitamin C, 1×insulin-transferrin-selenium-ethanolamine additive (ITS-X), 50 ng/ml of fibroblast growth factor (KGF), 0.5 μM SANT1 (with smo as an inhibitor target), 100 nM retinoic acid (TTNPB), 500 nM phorbol 12,13-dibutyrate (PDBu), 2 μM ALK inhibitor (K02288), and 2 μM WNT signaling pathway inhibitor XAV-939 (not added in a control group), with the concentrations all being final concentrations. […]

[2] = test system: pancreatic progenitor cells and pancreatic islet β cells differentiated from human embryonic stem cells; assay: Immunofluorescence detection of PDX1 and PDX1/INS proteins (human embryonic stem cells); assay type: cell-based
Description: a pancreatic progenitor cell medium was prepared, the medium in step 1) was replaced with the pancreatic progenitor cell medium, and the cells were cultured in a carbon dioxide incubator at 37 degrees Celsius for 5 days, during which the medium was replaced every day, wherein the composition of the pancreatic progenitor cell medium was: with an MCDB131 medium as a basic medium, and the following components at the working concentrations were further included: 0.5% of bovine serum albumin (BSA), 1.5 g/L of sodium bicarbonate, 1×glutamine (GlutaMAX), 10 mM glucose, 0.25 M vitamin C, 1×insulin-transferrin-selenium-ethanolamine additive (ITS-X), 50 ng/ml of fibroblast growth factor 7 (KGF), 0.5 μM SANT1 (with smo as an inhibitor target), 100 nM retinoic acid (TTNPB), 500 nM phorbol 12,13-dibutyrate (PDBu), 2 μM ALK inhibitor (K02288), and 2 μM WNT signaling pathway inhibitor XAV-939 (not added in a control group), with the concentrations all being final concentrations.
b. pancreatic islet β cell medium 2 was prepared, the pancreatic islet β cell medium 1 in above-mentioned step a was replaced with the pancreatic islet β cell medium 2, and the cells were cultured in a carbon dioxide incubator at 37 degrees Celsius for 5 days, during which the medium was replaced every day, wherein the composition of the pancreatic islet β cell medium 1 was: with an MCDB131 medium as a basic medium, and the following components at the working concentrations were further included: 20 mM glucose, 2% of bovine serum albumin (BSA), 1.5 g/L of sodium bicarbonate, 1×glutamine (GlutaMAX), 0.05 mM vitamin C, 1×insulin-transferrin-selenium-ethanolamine additive (ITS-X), 2 μM ALK inhibitor (K02288), 1 μM triiodothyronine (T3), 10 μM YO-01027 (Notch signaling pathway inhibitor), and 10 μM zinc sulfate, with the concentrations all being final concentrations; and the composition of the pancreatic islet β cell medium 2 was: with an MCDB131 medium as a basic medium, and the following components at the working concentrations were further included: 20 mM glucose, 2% of bovine serum albumin (BSA), 1.5 g/L of sodium bicarbonate, 1×glutamine (GlutaMAX), 0.05 mM vitamin C, 1×insulin-transferrin-selenium-ethanolamine additive (ITS-X), 1 μM triiodothyronine (T3), 10 μM Repsox (ALK5 inhibitor), 10 μM vitamin E, 10 μg/ml of heparin sodium, 2 μM R428 (Axl inhibitor), 10 μM zinc sulfate, and 10 mM N-acetyl-L-cysteine (N-cys), with the concentrations all being final concentrations.
Cells in a culture plate were washed three times with a phosphate buffered saline (PBS), 3 minutes each time; the cells were fixed with 4% paraformaldehyde at room temperature for 20 minutes, and washed three times with PBS, 3 minutes each time; a blocking solution was prepared in advance (by adding Triton at a final concentration of 0.3% to 9 ml of DPBS, adding donkey serum at a final concentration of 10%, and uniformly mixing); the above-prepared blocking solution was used for blocking and perforation at room temperature for 2 hours; the blocking solution was soaked up, a working concentration of primary antibody prepared with the blocking solution was then added, and the product was left to stand at room temperature for 30 minutes and then placed in a refrigerator at 4° C. overnight; the next day, the product was washed three times with PBS, 3 minutes each time; a fluorescent secondary antibody of donkey serum was added and incubation was carried out at room temperature for 2 hours; in the same way, the product was washed three times with PBS, 3 minutes each time; the product was incubated with a working solution of the nuclear dye DAPI at room temperature for 10 minutes, and washed three times with PBS, 3 minutes each time; then a fluorescence microscope was used for observation and data were collected. […]

[3] = 2 μM inhibitor in pancreatic progenitor cell stage, GAPDH reference
[4] = 2 μM inhibitor in pancreatic progenitor cell stage

Oc1nc(-c2ccc(C(F)(F)F)cc2)nc2c1CSCC2 [XAV-939]
transcription level of the insulin gene INS in the mature pancreatic islet β cell stage ([1]; 2 μM inhibitor added in pancreatic progenitor cell stage): greatly increased | relative expression of mRNA of NKX6-1 in pancreatic progenitor cells [1, 3]: significantly increased | relative expression of mRNA of PDX1 in pancreatic progenitor cells [1, 3]: significantly increased | number of insulin INS-positive and PDX1 co-stained pancreatic islet β cells in the mature pancreatic islet β cell stage ([2]; 2 μM inhibitor added in pancreatic progenitor cell stage, immunofluorescence): significantly increased | PDX1-positive pancreatic progenitor cells (immunofluorescence) [2, 4]: significantly increased | cell growth (total cell number by DAPI) [2, 4]: did not affect the cell growth
